# Legend:
# Format in all cases: functional
# [1] = test system: SW-620; test: Cytotoxicity against human SW620 cells assessed as cell growth at 0.01 uM after 48 hrs by SRB assay relative to control; conditions: SW-620, 48 h, read-out: Activity
# [2] = test system: MCF7; test: Cytotoxicity against human MCF7 cells assessed as cell growth at 1 uM after 48 hrs by SRB assay relative to control; conditions: MCF7, 48 h, read-out: Activity
# [3] = test system: A498; test: Cytotoxicity against human A498 cells assessed as cell growth at 1 uM after 48 hrs by SRB assay relative to control; conditions: A498, 48 h, read-out: Activity
# [4] = test system: HCT-116; test: Cytotoxicity against human HCT116 cells assessed as cell growth at 0.1 uM after 48 hrs by SRB assay relative to control; conditions: HCT-116, 48 h, read-out: Activity
# [5] = test system: CAKI-1; test: Cytotoxicity against human Caki1 cells assessed as cell growth at 100 uM after 48 hrs by SRB assay relative to control; conditions: CAKI-1, 48 h, read-out: Activity
# [6] = test system: CAKI-1; test: Cytotoxicity against human Caki1 cells assessed as cell growth at 0.01 uM after 48 hrs by SRB assay relative to control; conditions: CAKI-1, 48 h, read-out: Activity
# [7] = test system: KM12; test: Cytotoxicity against human KM12 cells assessed as cell growth at 0.01 uM after 48 hrs by SRB assay relative to control; conditions: KM12, 48 h, read-out: Activity
# [8] = test system: SK-MEL-5; test: Cytotoxicity against human SK-MEL-5 cells assessed as cell growth at 0.1 uM after 48 hrs by SRB assay relative to control; conditions: SK-MEL-5, 48 h, read-out: Activity
# [9] = test system: OVCAR-8; test: Cytotoxicity against human OVCAR8 cells after 48 hrs by SRB assay; conditions: OVCAR-8, 48 h
# [10] = test system: SK-MEL-28; test: Cytotoxicity against human SK-MEL-28 cells assessed as cell growth at 1 uM after 48 hrs by SRB assay relative to control; conditions: SK-MEL-28, 48 h, read-out: Activity
# [11] = test system: M14; test: Cytotoxicity against human M14 cells assessed as cell growth at 0.1 uM after 48 hrs by SRB assay relative to control; conditions: M14, 48 h, read-out: Activity
# [12] = test system: HCT-116; test: Cytotoxicity against human HCT116 cells assessed as cell growth at 100 uM after 48 hrs by SRB assay relative to control; conditions: HCT-116, 48 h, read-out: Activity
# [13] = test system: LOX IMVI; test: Cytotoxicity against human LOXIMVI cells after 48 hrs by SRB assay
# [14] = test system: SF-295; test: Cytotoxicity against human SF295 cells after 48 hrs by SRB assay; conditions: SF-295, 48 h; for CC50: read-out: LC50 (the source's name)
# [15] = test system: MDA-MB-468; test: Cytotoxicity against human MDA-MB-468 cells assessed as cell growth at 1 uM after 48 hrs by SRB assay relative to control; conditions: MDA-MB-468, 48 h, read-out: Activity
# [16] = test system: UO-31; test: Cytotoxicity against human UO31 cells assessed as cell growth at 0.01 uM after 48 hrs by SRB assay relative to control; conditions: UO-31, 48 h, read-out: Activity
# [17] = test system: HCT-116; test: Cytotoxicity against human HCT116 cells assessed as cell growth at 0.01 uM after 48 hrs by SRB assay relative to control; conditions: HCT-116, 48 h, read-out: Activity
# [18] = test system: T47D; test: Cytotoxicity against human T47D cells assessed as cell growth at 0.1 uM after 48 hrs by SRB assay relative to control; conditions: read-out: Activity
# [19] = test system: COLO 205; test: Cytotoxicity against human COLO205 cells assessed as cell growth at 100 uM after 48 hrs by SRB assay relative to control; conditions: COLO 205, 48 h, read-out: Activity
# [20] = test system: MDA-MB-231; test: Cytotoxicity against human MDA-MB-231 cells assessed as cell growth at 0.01 uM after 48 hrs by SRB assay relative to control; conditions: MDA-MB-231, 48 h, read-out: Activity
# [21] = test system: OVCAR-3; test: Cytotoxicity against human OVCAR3 cells after 48 hrs by SRB assay; conditions: OVCAR-3, 48 h
# [22] = test system: NCI-H460; test: Cytotoxicity against human NCI-H460 cells assessed as cell growth at 1 uM after 48 hrs by SRB assay relative to control; conditions: NCI-H460, 48 h, read-out: Activity
# [23] = test system: TK-10; test: Cytotoxicity against human TK10 cells assessed as cell growth at 0.1 uM after 48 hrs by SRB assay relative to control; conditions: TK-10, 48 h, read-out: Activity
# [24] = test system: MDA-MB-435; test: Cytotoxicity against human MDA-MB-435 cells after 48 hrs by SRB assay; conditions: MDA-MB-435, 48 h
# [25] = test system: UO-31; test: Cytotoxicity against human UO31 cells after 48 hrs by SRB assay; conditions: UO-31, 48 h
# [26] = test system: SK-OV-3; test: Cytotoxicity against human SKOV3 cells assessed as cell growth at 1 uM after 48 hrs by SRB assay relative to control; conditions: SK-OV-3, 48 h, read-out: Activity
# [27] = test system: KM12; test: Cytotoxicity against human KM12 cells assessed as cell growth at 0.1 uM after 48 hrs by SRB assay relative to control; conditions: KM12, 48 h, read-out: Activity
# [28] = test system: MDA-MB-468; test: Cytotoxicity against human MDA-MB-468 cells assessed as cell growth at 100 uM after 48 hrs by SRB assay relative to control; conditions: MDA-MB-468, 48 h, read-out: Activity
# [29] = test system: UACC-62; test: Cytotoxicity against human UACC62 cells assessed as cell growth at 0.01 uM after 48 hrs by SRB assay relative to control; conditions: UACC-62, 48 h, read-out: Activity
# [30] = test system: Hs-578T; test: Cytotoxicity against human Hs 578T cells assessed as cell growth at 1 uM after 48 hrs by SRB assay relative to control; conditions: read-out: Activity
# [31] = test system: K562; test: Cytotoxicity against human K562 cells assessed as cell growth at 0.1 uM after 48 hrs by SRB assay relative to control; conditions: K562, 48 h, read-out: Activity
# [32] = test system: SF-268; test: Cytotoxicity against human SF268 cells after 48 hrs by SRB assay; conditions: SF-268, 48 h; for CC50: read-out: LC50 (the source's name)
# [33] = test system: HT-29; test: Cytotoxicity against human HT-29 cells assessed as cell growth at 1 uM after 48 hrs by SRB assay relative to control; conditions: HT-29, 48 h, read-out: Activity
# [34] = test system: BT-549; test: Cytotoxicity against human BT549 cells assessed as cell growth at 100 uM after 48 hrs by SRB assay relative to control; conditions: BT-549, 48 h, read-out: Activity
# [35] = test system: MOLT-4; test: Cytotoxicity against human MOLT4 cells assessed as cell growth at 1 uM after 48 hrs by SRB assay relative to control; conditions: MOLT-4, 48 h, read-out: Activity
# [36] = test system: CCRF-CEM; test: Cytotoxicity against human CCRF-CEM cells assessed as cell growth at 1 uM after 48 hrs by SRB assay relative to control; conditions: read-out: Activity
smiles,measurement,setting,value
Cn1cc(C2=C(c3cn(C)c4ncccc34)C(=O)NC2=O)c2ccccc21,growth at 0.01 µM,[1],96%
same,growth at 1 µM,[2],73%
same,growth at 1 µM,[3],27%
same,growth at 0.1 µM,[4],107%
same,growth at 100 µM,[5],-10%
same,growth at 0.01 µM,[6],97%
same,growth at 0.01 µM,[7],102%
same,growth at 0.1 µM,[8],101%
same,GI50,[9],4.23 µM
same,TGI,[9],39.9 µM
same,growth at 1 µM,[10],90%
same,growth at 0.1 µM,[11],108%
same,growth at 100 µM,[12],-17%
same,GI50,[13],2.61 µM
same,TGI,[13],30.2 µM
same,GI50,[14],2.61 µM
same,TGI,[14],10.3 µM
same,CC50,[14],> 100 µM
same,growth at 1 µM,[15],78%
same,growth at 0.01 µM,[16],90%
same,growth at 0.01 µM,[17],106%
same,growth at 0.1 µM,[18],100%
same,growth at 100 µM,[19],-65%
same,growth at 0.01 µM,[20],99%
same,GI50,[21],4.49 µM
same,TGI,[21],36.8 µM
same,growth at 1 µM,[22],89%
same,growth at 0.1 µM,[23],105%
same,GI50,[24],0.648 µM
same,TGI,[24],19.3 µM
same,GI50,[25],2.46 µM
same,TGI,[25],25.3 µM
same,growth at 1 µM,[26],77%
same,growth at 0.1 µM,[27],102%
same,growth at 100 µM,[28],-56%
same,growth at 0.01 µM,[29],97%
same,growth at 1 µM,[30],48%
same,growth at 0.1 µM,[31],102%
same,GI50,[32],4.86 µM
same,TGI,[32],48.4 µM
same,CC50,[32],> 100 µM
same,growth at 1 µM,[33],93%
same,growth at 100 µM,[34],-30%
same,growth at 1 µM,[35],101%
same,growth at 1 µM,[36],85%
N#CCCCCCn1cc(C2=C(c3cn(CCCCCC#N)c4ccccc34)C(=O)N(O)C2=O)c2ccccc21,growth at 0.01 µM,[1],100%
same,growth at 1 µM,[2],95%
same,growth at 1 µM,[3],70%
same,growth at 0.1 µM,[4],97%
same,growth at 100 µM,[5],16%
same,growth at 0.01 µM,[6],98%
same,growth at 0.01 µM,[7],97%
same,growth at 0.1 µM,[8],99%
same,GI50,[9],12.3 µM
same,LC50,[9],> 100 µM
same,TGI,[9],> 100 µM
same,growth at 1 µM,[10],103%
same,growth at 0.1 µM,[11],85%
same,growth at 100 µM,[12],-15%
same,GI50,[13],2.53 µM
same,LC50,[13],> 100 µM
same,TGI,[13],48.1 µM
same,GI50,[14],5.93 µM
same,TGI,[14],31.4 µM
same,CC50,[14],> 100 µM
same,growth at 1 µM,[15],106%
same,growth at 0.01 µM,[16],97%
same,growth at 0.01 µM,[17],102%
same,growth at 0.1 µM,[18],89%
same,growth at 100 µM,[19],-22%
same,growth at 0.01 µM,[20],96%
same,GI50,[21],3.81 µM
same,LC50,[21],> 100 µM
same,TGI,[21],19 µM
same,growth at 1 µM,[22],101%
same,growth at 0.1 µM,[23],95%
same,GI50,[24],2.74 µM
same,LC50,[24],> 100 µM
same,TGI,[24],8.31 µM
same,GI50,[25],1.76 µM
same,LC50,[25],> 100 µM
same,TGI,[25],90.1 µM
same,growth at 1 µM,[26],86%
same,growth at 0.1 µM,[27],97%
same,growth at 100 µM,[28],-15%
same,growth at 0.01 µM,[29],95%
same,growth at 1 µM,[30],88%
same,growth at 0.1 µM,[31],91%
same,GI50,[32],10.1 µM
same,TGI,[32],> 100 µM
same,CC50,[32],> 100 µM
same,growth at 1 µM,[33],106%
same,growth at 100 µM,[34],-26%
same,growth at 1 µM,[35],85%
same,growth at 1 µM,[36],83%
